Laboratory results: article PMC8844424, “Optimization, purification and characterization of laccase from Ganoderma leucocontextum along with its phylogenetic relationship” (Scientific Reports, 2022)

System: Glacc110 (purified laccase of G. leucocontextum)
Assay: spectrophotometric oxidation assay at […] nm, Lineweaver-Burk plot
Assay type: biochemical, Ganoderma leucocontextum
Settings: 1-10 mM guaiacol, 100 mM citrate-phosphate buffer, pH 3.0; temperature not stated for kinetics

COc1ccccc1O [guaiacol]
Km: 1660 µM
